In assay [1] the target is T1, PDE9A (Homo sapiens, UniProt O76083). The following applies: concentrations of up to 100 [mu]M; cited from earlier work.
Assay [2] addresses T2, Murine PDE9A (Mus musculus, UniProt O70628).
T2 sequence (O70628 1-534): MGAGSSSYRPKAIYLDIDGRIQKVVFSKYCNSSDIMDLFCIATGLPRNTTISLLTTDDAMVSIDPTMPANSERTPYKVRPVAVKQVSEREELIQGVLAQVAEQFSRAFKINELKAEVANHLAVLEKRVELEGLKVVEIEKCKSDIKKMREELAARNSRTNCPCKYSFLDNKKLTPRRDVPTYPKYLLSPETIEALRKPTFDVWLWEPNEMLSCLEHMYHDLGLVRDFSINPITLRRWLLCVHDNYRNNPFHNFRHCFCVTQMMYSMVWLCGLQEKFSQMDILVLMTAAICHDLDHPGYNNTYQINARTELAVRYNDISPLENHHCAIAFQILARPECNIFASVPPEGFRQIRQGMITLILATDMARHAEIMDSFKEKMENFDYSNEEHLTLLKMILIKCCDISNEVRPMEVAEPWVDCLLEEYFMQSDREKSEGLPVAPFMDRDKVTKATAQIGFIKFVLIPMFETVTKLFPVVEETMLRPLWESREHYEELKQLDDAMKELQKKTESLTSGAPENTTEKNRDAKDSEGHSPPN
The following applies: concentrations below 200 [mu]M; cited from earlier work.

Assay [3] deals with T3, PDE1C (Homo sapiens, UniProt Q14123).
T3 construct: made in house; host or cells: SF9 insect cells (crude lysate used as enzyme source)
In words: PDE enzymatic activity assay (SPA), PDE1C, cAMP as substrate. Particulars: ratio IC50 PDE1C / IC50 PDE9A; for illustrative purposes. Format: biochemical. The protocol: (§1) The PDE enzymatic activity assays were run as SPA, in general according to the protocol of the manufacturer (Amersham Biosciences, product number: TRKQ 7100). As enzyme source, lysate (PBS with 1% Triton X-100 supplemented with protease inhibitors, cell debris removed by centrifugation at 13.000 rpm for 30 min) of SF 9 cell expressing the human PDE of interest was used. The total protein amount included in the assay varied upon infection and production efficacy of the SF9 cells and lay in the range of […].
(§2) In general, the assay conditions were as follows: • total assay volume: 40 μl • protein amount: 0.1-50 ng • substrate concentration (cGMP or cAMP): 20 nM; ˜1 mCi/l • incubation time: 60 min at room temperature • final DMSO concentration: 1%
(§3) The assays were run in 384-well format. The test reagents as well as the enzyme and the substrate were diluted in assay buffer. The assay buffer contained 50 mM Tris, 8.3 mM MgCl2, 1.7 mM EGTA, 0.1% BSA, 0.05% Tween 20; the pH of assay buffer was adjusted to 7.5. In case activity of PDE1C was analysed, 50 nM Calmodulin and 3 mM CaCl2 were included in the assay buffer. In case PDE9 activity was analyzed, the reaction was stopped by applying a PDE9 specific inhibitor (e.g. compounds according to WO2004/099210). PDE1C was analysed with cAMP as substrate, and PDE9 was analyzed with cGMP as substrate.
(§4) IC50 can be calculated in a conventional way, eventually with the help of GraphPadPrism or other suited software setting the positive control as 100 and the negative control as 0. For calculation of IC50 usually 8 dilutions of the test compound ([…]) are to be selected and tested following the aforementioned protocol.

The target in assay [4] is T1, PDE9A. In words: PDE enzymatic activity assay (SPA), PDE9A. Type of assay: biochemical. Set-up: made in house; host or cells: SF9 insect cells (crude lysate used as enzyme source). Particulars: cGMP substrate, for illustrative purposes; for inhibition at 10 µM: 10 micromolar; for IC50: given as ranges. The protocol: as §1, §2, §3
Calculation of % Inhibition:
The activity of the positive control (minus the negative control=background) is set to 100% and activity in the presence of test compound is expressed relative to these 100%.
Within this setting, an inhibition above 100% might be possible due to the nature of the variation of the positive control within the assay, however, in this case the reported % inhibition had been adjusted to 100%.
as §4

Broadly, the inhibition is the percentage by which the read-out fell short of the control. A higher inhibition goes with a response far below the control. In general, IC50 refers to the point on the concentration scale where inhibition reaches its midpoint. Low values mean higher potency, high ones lower potency.

T1 sequence (O76083 whole entry): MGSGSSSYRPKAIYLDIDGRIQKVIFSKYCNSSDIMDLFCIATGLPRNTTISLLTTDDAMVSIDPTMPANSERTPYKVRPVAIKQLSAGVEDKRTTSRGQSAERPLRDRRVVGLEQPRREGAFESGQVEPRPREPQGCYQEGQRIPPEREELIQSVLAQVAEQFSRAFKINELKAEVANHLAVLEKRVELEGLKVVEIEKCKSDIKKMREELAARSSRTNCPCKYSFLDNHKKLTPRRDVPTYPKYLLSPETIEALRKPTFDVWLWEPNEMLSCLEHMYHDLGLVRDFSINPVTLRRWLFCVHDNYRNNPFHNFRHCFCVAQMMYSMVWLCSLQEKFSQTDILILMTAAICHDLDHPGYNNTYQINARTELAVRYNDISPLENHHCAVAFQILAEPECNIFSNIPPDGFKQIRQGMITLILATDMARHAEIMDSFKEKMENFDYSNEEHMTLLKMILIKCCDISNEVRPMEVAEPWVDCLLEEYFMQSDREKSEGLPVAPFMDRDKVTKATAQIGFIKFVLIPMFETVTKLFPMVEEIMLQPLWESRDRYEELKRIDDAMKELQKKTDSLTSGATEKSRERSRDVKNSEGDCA

Consider `OCCN(CCO)c1nc(N2CCCCC2)c2nc(N(CCO)CCO)nc(N3CCCCC3)c2n1` [dipyridamole], for which the “inhibition on the isolated enzyme (human PDE9A)” value (“inhibition … (human PDE9A)” below) in assay [1] is given as “no inhibition”.
As to `COc1ccc(C2CNC(=O)C2)cc1OC1CCCC1` (stereo not drawn) [rolipram], the “inhibition … (human PDE9A)” value in assay [1] is listed as “no inhibition”.
As for `CCOC(=O)C1=C[C@]2(CC)CCCN3CCc4c(n1c1ccccc41)[C@@H]32` [vinpocetine], the “inhibition … (human PDE9A)” value in assay [1] is “no inhibition”.
As for `CC(C)Cn1c(=O)n(C)c(=O)c2[nH]cnc21` [IBMX], the “inhibition … (human PDE9A)” value in assay [1] is given as “no inhibition”. The “inhibition of murine PDE9A” value in assay [2] is recorded as “not inhibited”.
For the molecule `CC(=O)Nc1ccc(-c2c[nH]c(=O)cn2)cc1` [SKF94120], in assay [1], the “inhibition … (human PDE9A)” value is given as “no inhibition”.
As for `O=C(O)c1ccc(Cl)c(-n2ncc3c(=O)[nH]c(Cc4ccccc4OC(F)(F)F)nc32)c1` [Example 30-2, 1-(2-Chloro-5-carbox-phenyl)-6-(2-trifluoromethoxy-benzyl)-1,5-dihydro-pyrazolo[3,4-d]pyrimidin-4-one], the “Selectivity = IC50 PDE 1C/IC50 PDE9A (both nanomolar)” value in assay [3] was 55. In assay [4], this molecule had an inhibition at 10 µM of 100% and an IC50 of 10 to 500 nM.
In the same order, the values of `CC(=O)Nc1cccc(-n2ncc3c(=O)[nH]c(Cc4ccccc4OC(F)(F)F)nc32)c1` [Example 30-5, 1-(3-Acetamido-phenyl)-6-(2-trifluoromethoxy-benzyl)-1,5-dihydro-pyrazolo[3,4-d]pyrimidin-4-one] are 26, 97% and 10 to 500 nM.
Consider `Cc1ccc(C)c(-n2ncc3c(=O)[nH]c(Cc4ccccc4OC(F)(F)F)nc32)c1` [Example 18, 1-(2,5-Dimethyl-phenyl)-6-(2-trifluoromethoxy-benzyl)-1,5-ihydro-pyrazolo[3,4-d]pyrimidin-4-one], for which the “Selectivity = IC50 PDE 1C/IC50 PDE9A (both nanomolar)” value in assay [3] stood at 28. In assay [4], this molecule showed an inhibition at 10 µM of 86% and a half-inhibitory concentration (IC50) of 10 to 500 nM.
For `CCOc1ccc(Cl)c(-n2ncc3c(=O)[nH]c(Cc4ccccc4OC(F)(F)F)nc32)c1` [Example 20, 1-(2-Chloro-5-ethoxy-phenyl)-6-(2-trifluoromethoxy-benzyl)-1,5-dihydro-pyrazolo[3,4-d]pyrimidin-4-one], in that order: 4, 87% and 10 to 500 nM.

The values are drawn from patent US8648085B2, “1, 5-dihydro-pyrazolo (3, 4-D) pyrimidin-4-one derivatives and their use as PDE9A mudulators for the treatment of CNS disorders” (Boehringer Ingelheim International GmbH, priority 2007, dated 2014).
